Measured values: PubChem BioAssay AID493161 (The Scripps Research Institute Molecular Screening Center, 2011)
Calls of active or inactive are those of the source. How the calls were made is not given here.

Experiment: cytotoxicity of cultured cells, dose response, cytotoxicity control for LYPLA1/LYPLA2 dual inhibitor project, cell-based, absorbance, serum-free or FCS media (AID 493161)
Settings: absorbance cell survival

| SMILES | CC50 (serum-free media) | CC50 (with FCS) |
| --- | --- | --- |
| CCC1CCCCN1C(=O)n1ncc(C(O)(c2ccccc2)c2ccccc2)n1 (stereo unspecified) | > 50 µM (inactive) | > 50 µM (inactive) |
| CC(C)(O)c1cnn(C(=O)N2CCC(C(C)(C)C)CC2)n1 | > 9 µM | > 27 µM (inactive) |
| CC(C)(C)C1CCN(C(=O)n2ncc(C(O)(c3ccccc3)c3ccccc3)n2)CC1 | > 35 µM (inactive) | > 50 µM (inactive) |
